Results on 24 molecules are retold here after paper doi:10.1101/2021.10.01.462758v2 (biorxiv, 2021).

Molecules are shown by their SMILES. Like-named read-outs stand apart in the source and are kept apart here. Bounds are passed on as bounds.

The term Emax denotes the size of the effect at its maximum, as opposed to the concentration needed. Broadly, the EC50 is the midpoint of the concentration-response curve. A lower EC50 goes with higher potency in that assay.

The target in assay [1] is T1, D1R; D1 receptor fused to C-terminal RLuc (BRET assay) (Homo sapiens, UniProt P21728). Nature of the assay: cell-based. Also on record: species or system HEK293T. To be noted: HEK-293T, read-out: β-arrestin Emax (%), D1R.
T1 sequence (P21728 whole entry, the tested form may be a part): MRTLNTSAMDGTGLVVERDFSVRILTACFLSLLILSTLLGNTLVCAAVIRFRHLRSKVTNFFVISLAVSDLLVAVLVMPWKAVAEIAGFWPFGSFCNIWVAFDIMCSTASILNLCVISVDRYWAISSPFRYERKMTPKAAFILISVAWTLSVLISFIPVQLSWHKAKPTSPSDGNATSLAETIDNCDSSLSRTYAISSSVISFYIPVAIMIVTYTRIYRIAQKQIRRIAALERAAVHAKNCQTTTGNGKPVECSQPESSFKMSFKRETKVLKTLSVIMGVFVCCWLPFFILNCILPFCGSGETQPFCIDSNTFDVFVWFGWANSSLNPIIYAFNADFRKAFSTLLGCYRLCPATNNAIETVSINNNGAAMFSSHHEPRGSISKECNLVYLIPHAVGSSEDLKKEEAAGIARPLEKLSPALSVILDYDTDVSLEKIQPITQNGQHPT
The target of assay [2] is T2, D2R; D2Long receptor fused to C-terminal RLuc (BRET assay) (Homo sapiens, UniProt P14416). Briefly: cell-based. More on the design: species or system HEK293T. The note with it: for Emax: HEK-293T, read-out: β-arrestin Emax (%), D2R.
T2 sequence (P14416 whole entry, the tested form may be a part): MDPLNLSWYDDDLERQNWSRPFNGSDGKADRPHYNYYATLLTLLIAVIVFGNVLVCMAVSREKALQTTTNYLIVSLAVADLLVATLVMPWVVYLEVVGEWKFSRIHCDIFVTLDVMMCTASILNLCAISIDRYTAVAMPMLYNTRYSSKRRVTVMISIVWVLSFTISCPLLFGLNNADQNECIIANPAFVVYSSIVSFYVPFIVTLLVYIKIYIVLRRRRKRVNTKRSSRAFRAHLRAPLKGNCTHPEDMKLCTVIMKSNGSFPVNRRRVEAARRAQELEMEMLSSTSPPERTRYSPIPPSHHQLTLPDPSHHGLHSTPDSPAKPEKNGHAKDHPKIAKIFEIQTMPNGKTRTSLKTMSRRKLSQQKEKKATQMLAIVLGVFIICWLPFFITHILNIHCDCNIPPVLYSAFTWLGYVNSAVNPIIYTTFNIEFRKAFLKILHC
In assay [3] the target is T1, D1R; D1 receptor fused to C-terminal RLuc (BRET assay). Nature of the assay: BRET beta-arrestin2 recruitment, HEK293T. It is filed as cell-based. For orientation: Bioluminescence resonance energy transfer reports proximity on the nanometre scale.
The target in assay [4] is T2, D2R; D2Long receptor fused to C-terminal RLuc (BRET assay). Briefly: cell-based. Also on record: species or system HEK293T.
Assay [5] has the same target. Briefly: BRET beta-arrestin2 recruitment, HEK293T. It is filed as cell-based.
Assay [6] shares this target. The note with it: agonist.
Assay [7] concerns the target T1, D1R; D1 receptor fused to C-terminal RLuc (BRET assay). Briefly: cell-based. To be noted: HEK-293T, read-out: β-arrestin Emax (%), D1R. More on the design: species or system HEK293T. This is another data set of the same source.
Assay [8] deals with T2, D2R; D2Long receptor fused to C-terminal RLuc (BRET assay). Nature of the assay: cell-based. Also on record: species or system HEK293T. To be noted: HEK-293T, read-out: β-arrestin Emax (%), D2R.
The target is the same in assay [9]. Briefly: cell-based. More on the design: species or system HEK293T. The source holds these as a separate data set.
The target in assay [10] is T1, D1R; D1 receptor fused to C-terminal RLuc (BRET assay). Briefly: cell-based. To be noted: HEK-293T, read-out: β-arrestin Emax (%), D1R. Also on record: species or system HEK293T. The source holds these as a separate data set.
Assay [11] deals with T2, D2R; D2Long receptor fused to C-terminal RLuc (BRET assay). Nature of the assay: cell-based. More on the design: species or system HEK293T. The note with it: HEK-293T, read-out: β-arrestin Emax (%), D2R. This is another data set of the same source.
Assay [12] addresses T1, D1R; D1 receptor fused to C-terminal RLuc (BRET assay). Briefly: cell-based. Also on record: species or system HEK293T. To be noted: HEK-293T, read-out: β-arrestin Emax (%), D1R. This is another data set of the same source.
The target of assay [13] is T2, D2R; D2Long receptor fused to C-terminal RLuc (BRET assay). Briefly: cell-based. Also on record: species or system HEK293T. This is another data set of the same source.

With `Oc1cc2c(cc1O)[C@H]1c3cc(Br)sc3CN[C@@H]1CC2` [1c], the results for the Emax in [1] and in assay [2] were 137 ± 9.35% and 70.3 ± 3.41%, respectively.

With `Oc1cccc(-c2cnc3ccccc3c2)c1O` [2i], the EC50 in [3] is over 10 µM; in assay [4], over 100 µM.

With `Oc1cc2c(cc1O)[C@@H]1c3cc(Br)sc3CN[C@H]1CC2` [1d], the figures for the Emax in [1] and in assay [2] were 52.8 ± 9.7% and 50.6 ± 4.02%, respectively. The EC50 in assay [3] is 2.63 µM; in assay [5] it was 5.62 µM.

For the molecule `NCCc1ccc(O)c(O)c1` [DA], the “D2R beta-arrestin Emax (%)” value in [6] is given as 90.29±3.23%. Besides, in [2] (beta-arrestin2 recruitment, % of dopamine, agonist), the “β-arrestin Emax (%), D2R” value is listed as 90.29±3.23%.

Turning to `Oc1cc2c(cc1O)[C@H]1c3cc(Br)sc3CN[C@@H]1CC2` (racemic) [1b], the values for the Emax in [1] and in assay [2] were 138 ± 8.41% and 60.3 ± 2.27%, respectively.

For the molecule `Oc1cccc(-c2cncc3ccccc23)c1O` [2h], in [7], the maximal effect (Emax) came to 8.1 ± 2.1%. Also, the EC50 in assay [3] is 0.689 µM; in assay [4], over 100 µM.

Consider `N#Cc1ccc(-c2cccc(O)c2O)cc1` [2c], for which the Emax in assay [8] worked out at 1.61 ± 1.27%. Moreover, the half-maximal effective concentration (EC50) in assay [3] is over 10 µM; in assay [9], 0.0317 µM.

For the molecule `Oc1cc2c(cc1O)[C@@H]1c3cc(-c4cccc(C(F)(F)F)c4)sc3CN[C@H]1CC2` [1i], the concentration for a half-maximal effect (EC50) in assay [3] and in assay [5] was over 10 µM in each case.

With `OCCc1ccc(O)c(O)c1` [3a], the figures for the maximum response (Emax) in assay [10] and in assay [11] were 11.5 ± 3.05% and 9.98 ± 2.96%, respectively. Besides, the results for the half-maximal effective concentration (EC50) in assay [3] and in assay [5] were 0.229 µM and 5.26 µM, respectively.

In the case of `Oc1cccc(-c2cccc(C(F)(F)F)c2)c1O` [2b], in assay [7], the Emax came to 6.13 ± 3.11%. In addition, the results for the EC50 in assay [3] and in [9] were 0.0052 µM and over 10 µM, respectively.

`CCCc1cc2c(s1)CN[C@@H]1CCc3cc(OC(C)=O)c(OC(C)=O)cc3[C@@H]21` [ABT-431]: the results for the maximal effect (Emax) in assay [1] and in [2] were 88.2 ± 3.06% and 23 ± 2.15%, respectively. Further, the values for the EC50 in [3] and in assay [5] were 3.2 µM and 3 µM, respectively.

As for `CN1Cc2sccc2[C@@H]2c3cc(O)c(O)cc3CC[C@H]21` (relative stereo) [1j], the EC50 is over 10 µM in assay [3] and 7.48 µM in [5]. Besides, the Emax in [2] turned out to be 73.4 ± 17.8%.

Consider `Cc1cc(-c2cccc(O)c2O)cs1` [2a], for which the Emax worked out at 30.3 ± 5.6% in assay [7] and 13.9 ± 3.68% in assay [8]. In assay [3], this molecule came in with an EC50 of 6.9 µM.

On to `CCCc1cc2c(s1)CN[C@@H]1CCc3cc(O)c(O)cc3[C@@H]21` [(-)-A-86929], for which the maximum response (Emax) came out at 95.5 ± 6.88% in assay [1] and 79.7 ± 3.83% in assay [2]. Moreover, the EC50 in [3] was determined as 0.607 µM; in [5], 0.27 µM.

Take `CCCc1cc2c(s1)CN[C@H]1CCc3cc(O)c(O)cc3[C@H]21` [(+)-A-86929]: the Emax worked out at 94.1 ± 6.55% in [1] and 38 ± 4.45% in assay [2]. The EC50 was determined as 2.8 µM in [3] and 2.07 µM in assay [5].

As to `Oc1cc2c(cc1O)[C@H]1c3cc(-c4cccc(C(F)(F)F)c4)sc3CN[C@@H]1CC2` [1h], the EC50 in assay [3] is over 10 µM; in assay [5], 4.84 µM. Further, the Emax in [2] is 73 ± 4.69%.

Regarding `Nc1cccc(-c2cccc(O)c2O)c1` [2g], the maximum response (Emax) in assay [7] was found to be 4 ± 1.6%. In addition, the EC50 was 0.00733 µM in assay [3] and over 100 µM in assay [4].

In the case of `NS(=O)(=O)c1ccc(-c2cccc(O)c2O)cc1` [2f], the Emax in assay [7] stood at 4.6 ± 1.5%. Further, the values for the EC50 in assay [3] and in assay [4] were 0.0514 µM and over 100 µM, respectively.

`Oc1cccc(-c2cccnc2)c1O` [2d]: the maximal response (Emax) in assay [7] is 2.6 ± 1.8%. Also, the results for the EC50 in assay [3] and in [4] were 0.053 µM and over 100 µM, respectively.

Regarding `N#Cc1cccc(-c2cccc(O)c2O)c1` [2e], the figures for the concentration for a half-maximal effect (EC50) in [3] and in [4] were over 10 µM and over 100 µM, respectively.

For the molecule `N[C@H]1CCc2cc(O)c(O)cc2[C@@H]1c1cccs1` (racemic) [1m], the Emax in assay [1] was found to be 3.7 ± 1.67%; in [2] it was 27 ± 1.8%.

As to `Oc1cc2c(cc1O)[C@H](c1cccs1)[C@@H](NCc1ccccc1)CC2` (racemic) [1l], the Emax in assay [2] was found to be 8.62 ± 3.15%.

Regarding `COc1cccc(-c2ccc(O)c(O)c2)c1` [Z4642446630], the Emax in [12] turned out to be 17.1 ± 5.3%. The EC50 in [3] (agonist mode, beta-arrestin2 pathway, pH […]) was found to be 5.48 µM.

For `OCCCc1ccc(O)c(O)c1` [3b], the Emax in assay [10] worked out at 3.5 ± 1.9%. Further, the concentration for a half-maximal effect (EC50) is 0.534 µM in assay [3] and over 10 µM in assay [13].
